This passage reports IC50 and inhibition results from patent US20220009920A1 (GB005, Inc., priority 2020, published 2022).

Structures are written as SMILES.

One test concerns BTK in RAMOS B cells. The test can be described thus: Assay to determine BTK activity in RAMOS B cells (anti-IgM, FLIPR Calcium 6). It is filed as cell-based. The note with it: anti-IgM EC80, calcium readout.
In a further test the target is T1, CDK5/P35 (Homo sapiens, UniProt Q00535).
T1 construct: AssayQuant Technologies, Inc. (ran the panel)
T1 sequence (Q00535 whole entry, species assumed): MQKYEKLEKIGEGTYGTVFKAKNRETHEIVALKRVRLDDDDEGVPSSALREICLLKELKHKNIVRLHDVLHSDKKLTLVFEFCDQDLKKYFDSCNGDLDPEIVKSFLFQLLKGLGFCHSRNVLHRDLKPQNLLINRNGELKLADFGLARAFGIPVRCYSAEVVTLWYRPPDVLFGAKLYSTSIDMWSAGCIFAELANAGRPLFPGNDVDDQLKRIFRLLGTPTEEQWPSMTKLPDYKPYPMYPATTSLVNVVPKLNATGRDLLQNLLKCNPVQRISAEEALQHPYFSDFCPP
T1 sequence (Q15078 2-307 partner limits assumed, species assumed): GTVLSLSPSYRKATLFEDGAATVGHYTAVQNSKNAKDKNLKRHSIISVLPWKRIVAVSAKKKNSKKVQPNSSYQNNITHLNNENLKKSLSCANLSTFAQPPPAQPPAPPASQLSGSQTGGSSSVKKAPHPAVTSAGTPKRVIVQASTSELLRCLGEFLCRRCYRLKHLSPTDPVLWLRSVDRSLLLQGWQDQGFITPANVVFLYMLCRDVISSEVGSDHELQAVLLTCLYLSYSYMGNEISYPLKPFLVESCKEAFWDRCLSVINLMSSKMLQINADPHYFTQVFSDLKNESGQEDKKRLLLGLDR
The test can be described thus: Large panel kinase profiling. The test is classed as biochemical. The conditions noted are these: 1 μM test article, 1 mM ATP. The procedure: (§1) Large panel kinase profiling was performed at AssayQuant Technologies, Inc. 260 Cedar Hill Street, Marlborough, Mass. 01752 using the PhosphoSens® CSox-Sensor platform using 1 μM test article concentration and 1 mM ATP concentration (www.assayquant.com). Reactions were run in Corning, half-area 96-well, white flat round bottom polystyrene NBS microplates (Cat. #3642) after sealing using optically-clear adhesive film (TopSealA-Plus plate seal, PerkinElmer), applied with either a roller or a paddle to eliminate evaporation and resulting drift. The standard total reaction volume was 50 μL. All experiments were ran at 30° C. to control for fluctuations in ambient temperature. Plates were read from the top in kinetic mode (readings taken every 1 min), monitoring fluorescence intensity with filters using Ex 360 nm and Em 485 nm and a band width of 40 and 20 nm, respectively, and a gain of 80. Data analysis was performed using either Graphpad Prism or Gene Data Screener software.

The next test concerns the target T2, EPHA3 (Homo sapiens, UniProt P29320).
T2 sequence (P29320 21-983): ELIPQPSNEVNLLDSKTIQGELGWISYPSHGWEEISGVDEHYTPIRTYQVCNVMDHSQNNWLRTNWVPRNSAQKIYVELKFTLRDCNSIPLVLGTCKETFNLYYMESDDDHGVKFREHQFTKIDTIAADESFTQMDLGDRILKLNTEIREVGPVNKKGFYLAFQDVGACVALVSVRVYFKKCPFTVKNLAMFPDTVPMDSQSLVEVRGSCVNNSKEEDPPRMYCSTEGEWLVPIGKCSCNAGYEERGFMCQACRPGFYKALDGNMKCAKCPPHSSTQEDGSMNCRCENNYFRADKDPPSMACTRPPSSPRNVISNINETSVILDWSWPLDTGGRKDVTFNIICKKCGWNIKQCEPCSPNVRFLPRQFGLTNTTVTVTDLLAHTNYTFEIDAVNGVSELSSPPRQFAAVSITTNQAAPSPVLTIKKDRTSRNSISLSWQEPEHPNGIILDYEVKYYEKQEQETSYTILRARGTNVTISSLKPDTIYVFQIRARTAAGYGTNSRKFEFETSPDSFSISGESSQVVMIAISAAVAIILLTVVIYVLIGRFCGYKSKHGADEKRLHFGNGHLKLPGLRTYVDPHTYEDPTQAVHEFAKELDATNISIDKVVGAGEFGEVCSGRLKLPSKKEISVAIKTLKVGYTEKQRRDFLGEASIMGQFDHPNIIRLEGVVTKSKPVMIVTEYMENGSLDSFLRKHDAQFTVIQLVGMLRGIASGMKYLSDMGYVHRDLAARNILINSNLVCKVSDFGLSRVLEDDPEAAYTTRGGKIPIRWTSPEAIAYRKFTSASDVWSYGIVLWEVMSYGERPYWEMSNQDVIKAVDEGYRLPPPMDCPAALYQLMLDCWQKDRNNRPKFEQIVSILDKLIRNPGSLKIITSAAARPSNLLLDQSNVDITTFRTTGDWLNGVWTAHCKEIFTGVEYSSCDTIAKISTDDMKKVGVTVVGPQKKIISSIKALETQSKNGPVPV
The test can be described thus: Large panel kinase profiling. The test is classed as biochemical. The conditions noted are these: 1 μM test article, 1 mM ATP. The procedure:
as §1

The target of another test is T3, GRK1 (Homo sapiens, UniProt Q15835).
T3 construct: AssayQuant Technologies, Inc. (service provider)
T3 sequence (Q15835 1-563): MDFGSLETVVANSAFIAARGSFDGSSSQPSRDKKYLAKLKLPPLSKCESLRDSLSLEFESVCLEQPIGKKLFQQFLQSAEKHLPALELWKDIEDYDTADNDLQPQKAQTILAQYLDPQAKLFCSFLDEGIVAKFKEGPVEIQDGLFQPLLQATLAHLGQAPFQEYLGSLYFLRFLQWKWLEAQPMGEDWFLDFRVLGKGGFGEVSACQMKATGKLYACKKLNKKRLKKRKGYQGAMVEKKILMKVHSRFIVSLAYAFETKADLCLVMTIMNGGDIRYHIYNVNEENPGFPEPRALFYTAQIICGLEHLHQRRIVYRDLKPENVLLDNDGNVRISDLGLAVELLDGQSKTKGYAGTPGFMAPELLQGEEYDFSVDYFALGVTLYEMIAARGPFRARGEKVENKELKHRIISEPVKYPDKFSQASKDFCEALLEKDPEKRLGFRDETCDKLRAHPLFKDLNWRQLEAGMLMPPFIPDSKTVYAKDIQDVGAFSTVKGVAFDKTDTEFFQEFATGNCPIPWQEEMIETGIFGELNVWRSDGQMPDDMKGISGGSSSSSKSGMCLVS
Briefly: Large panel kinase profiling. It is filed as biochemical. The conditions noted are these: 1 μM test article, 1 mM ATP. The procedure: as §1

In another test the target is LYNA (Homo sapiens, UniProt P07948). Briefly: Large panel kinase profiling. It is filed as biochemical. The note with it: 1 μM test article, 1 mM ATP. The procedure: as §1
Sequence of LYNA (P07948 whole entry, species assumed): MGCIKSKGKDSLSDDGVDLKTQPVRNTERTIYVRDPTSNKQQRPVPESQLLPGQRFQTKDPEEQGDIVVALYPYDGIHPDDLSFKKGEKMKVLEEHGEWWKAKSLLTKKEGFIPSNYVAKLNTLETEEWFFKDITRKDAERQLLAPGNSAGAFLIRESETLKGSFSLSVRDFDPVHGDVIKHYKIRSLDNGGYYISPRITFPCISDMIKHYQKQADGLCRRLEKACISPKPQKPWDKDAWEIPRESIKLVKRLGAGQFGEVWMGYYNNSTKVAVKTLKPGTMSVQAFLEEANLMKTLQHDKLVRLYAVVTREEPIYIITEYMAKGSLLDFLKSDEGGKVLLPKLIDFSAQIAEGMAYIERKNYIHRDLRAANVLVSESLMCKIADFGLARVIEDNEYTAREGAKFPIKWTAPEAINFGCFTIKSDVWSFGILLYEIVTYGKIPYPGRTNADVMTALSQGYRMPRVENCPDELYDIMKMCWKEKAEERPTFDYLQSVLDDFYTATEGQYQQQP
The target in a further test is PLK1 (Homo sapiens, UniProt P53350). Briefly: Large panel kinase profiling. It is filed as biochemical. The note with it: 1 μM test article, 1 mM ATP. The procedure:
as §1

In a further test the target is T4, STK33 (Homo sapiens, UniProt Q9BYT3).
T4 construct: AssayQuant Technologies, Inc. (contract assay)
T4 sequence (Q9BYT3 whole entry, species assumed): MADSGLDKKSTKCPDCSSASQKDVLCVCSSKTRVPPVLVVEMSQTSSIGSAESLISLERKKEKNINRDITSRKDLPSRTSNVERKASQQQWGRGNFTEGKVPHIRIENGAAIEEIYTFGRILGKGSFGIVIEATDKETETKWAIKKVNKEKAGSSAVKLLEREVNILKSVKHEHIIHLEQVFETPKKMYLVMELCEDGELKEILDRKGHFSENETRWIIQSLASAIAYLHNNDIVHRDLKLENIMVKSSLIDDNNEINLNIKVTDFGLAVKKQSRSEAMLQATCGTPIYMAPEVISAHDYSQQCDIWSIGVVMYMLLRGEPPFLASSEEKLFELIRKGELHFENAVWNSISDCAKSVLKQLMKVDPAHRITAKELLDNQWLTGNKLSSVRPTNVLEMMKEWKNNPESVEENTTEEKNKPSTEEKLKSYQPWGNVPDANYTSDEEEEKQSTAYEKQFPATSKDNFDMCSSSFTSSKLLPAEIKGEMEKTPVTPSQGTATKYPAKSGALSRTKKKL
Briefly: Large panel kinase profiling. The note with it: 1 μM test article, 1 mM ATP. The test is classed as biochemical. Here is the method:
as §1

Sequence of PLK1 (P53350 whole entry, species assumed): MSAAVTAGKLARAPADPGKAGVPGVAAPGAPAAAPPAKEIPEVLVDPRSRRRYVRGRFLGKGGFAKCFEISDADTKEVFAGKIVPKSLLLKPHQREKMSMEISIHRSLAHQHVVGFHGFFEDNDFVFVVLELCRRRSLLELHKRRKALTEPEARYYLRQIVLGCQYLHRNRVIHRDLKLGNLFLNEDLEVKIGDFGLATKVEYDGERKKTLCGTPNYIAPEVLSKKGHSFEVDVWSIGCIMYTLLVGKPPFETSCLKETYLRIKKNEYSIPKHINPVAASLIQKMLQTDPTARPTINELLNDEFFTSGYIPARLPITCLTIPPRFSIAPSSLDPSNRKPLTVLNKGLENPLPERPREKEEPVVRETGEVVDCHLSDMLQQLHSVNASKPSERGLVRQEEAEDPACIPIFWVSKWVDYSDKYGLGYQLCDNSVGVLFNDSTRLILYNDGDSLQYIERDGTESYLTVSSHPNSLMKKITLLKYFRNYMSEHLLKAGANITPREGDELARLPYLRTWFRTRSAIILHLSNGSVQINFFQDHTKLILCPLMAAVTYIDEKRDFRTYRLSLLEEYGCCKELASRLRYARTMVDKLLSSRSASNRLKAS

As to `C=CC(=O)N1CCC[C@@H](c2c(F)cc(C(N)=O)c3[nH]c4c(c23)CCC4)C1` [Compound 10-2, (S)-8-(1-acryloylpiperidin-3-yl)-7-fluoro-1,2,3,4-tetrahydrocyclo-penta[b]indole-5-carboxamide], in the test with BTK in RAMOS B cells (Homo sapiens, Ramos), the concentration for half-maximal inhibition (IC50) – broadly, the midpoint of a concentration-inhibition curve – was below 0.01 µM. Further, the inhibition (usually the relative decrease from the control value, in per cent) at 1 µM was 2.9% against CDK5/P35; 1.6% on EPHA3; -1.4% against GRK1; 22.8% against LYNA; 13.8% against PLK1; 20.5% against STK33.
Consider `C=CC(=O)N1CCCC(c2c(F)cc(C(N)=O)c3[nH]c4c(c23)CCCCC4)C1` (single isomer, unassigned) [Compound 5-6], for which the concentration for half-maximal inhibition (IC50) in the test with BTK in RAMOS B cells is below 0.01 µM. In addition, the inhibition at 1 µM was -13.2% against CDK5/P35; 0.7% on EPHA3; 16.4% against GRK1; -2.9% on LYNA; -6.3% against PLK1; -7.9% against STK33.
In the case of `C=CC(=O)N1CCC[C@@H](c2c(F)cc(C(N)=O)c3[nH]c4c(c23)CC2(CC4)CC2)C1` [Compound 6-2, (S)-5-(1-acryloylpiperidin-3-yl)-6-fluoro-1,2,4,9-tetrahydrospiro[carbazole-3,1′-cyclopropane]-8-carboxamide], the IC50 in the test with BTK in RAMOS B cells (Homo sapiens, Ramos) is below 0.01 µM. Also, the inhibition at 1 µM against CDK5/P35 was -37.5%; on EPHA3, 10.1%; against GRK1, -46.1%; on LYNA, 36.4%; against PLK1 it was -4.3%; against STK33 it was -27.1%.
